How the values were obtained:
deep lymphatic system = assay: Whole-body dynamic 3D-micro-MR lymphangiography of normal mice (Example 2); assay type: in vivo; conditions: for Number of Mice in Which the Thoracic Duct was Visualized/Number of Mice Examined: Normal Mice, 0.1 μmolGd intracutaneously into four middle phalanges; for Visualization of the deep lymph nodes: normal mice, 10 to 45 min after intracutaneous injection, FIGS. 7, 8; for Axillary lymph node-to-background (muscle) signal intensity ratio, comparison between agents: T1-weighted signal, P<0.01, FIG. 9A; for Axillary lymph node-to-background (muscle) signal intensity ratio, comparison between agents / Axillary lymph node-to-liver signal intensity ratio, comparison between agents: all time points examined; for Axillary lymph node-to-liver signal intensity ratio, comparison between agents: P<0.01, FIG. 9B
Method: (§1) The mice were anesthetized with 1.15 mg sodium pentobarbital (Dainabot, Osaka, Japan) i.p., and then injected intracutaneously with 0.1 μmolGd of PAMAM-G8, DAB-G5, PAMAM-G4, Gadomer-17, or GPDM into four middle phalanges in all four extremities. Dynamic micro-MR images were obtained using a 1.5-Tesla superconductive magnet unit (Signa LX, General Electric Medical System, Milwaukee, Wis.) with a round birdcage type coil of 3 cm diameter fixed by a custom-made coil holder. Four to eight female mice (7 weeks old, 18-21 g body weight) in each group were used and each contrast agent was prepared at least three separate times for these imaging studies. The mice were wrapped with gauze to stabilize their body temperature and were placed at the center of the coils.
(§2) A 3D-fast spoiled gradient echo [3D-fastSPGR (efgre3d package; Signa Horizon, GE); repetition time/echo time 28.5/7.9 msec; inversion time 65 msec; 31.2 kHz, flip angle 30°, four excitations; 40 slice-encoding steps; scan time 7 min 36 seconds] with chemical shift fat-suppression was used 10, 20, 30, and 45 min after injection of the contrast agents. The coronal images were reconstructed with 0.6-mm section thickness at every 0.3-mm. The FOV was 6×3 cm and the size of the matrix was 512×256. The intensities of the regions of interest (ROIs) (for example, a whole axillary lymph node, and the liver) were measured, and then the time-intensity curves analyzed. The data were expressed as the axillary lymph node-to-muscle and the axillary lymph node-to-liver ratios. The slice data were processed into 3D images using the MIP method with the same window and level (window 3500 and level 2300) (Advantage Windows, General Electric Medical System). Two board-certified radiologists separately read a set of stereo views of 3D-MRL for all studies, and estimated the visualization of the thoracic duct. After imaging, the mice were sacrificed by carbon dioxide inhalation.
Statistical analyses were performed using either Student's t-test or a one-way analysis of variance (ANOVA), with a pairwise comparison using the Bonferroni method for signal intensity curves (Statview; SAS Institute Inc., Cary, N.C.).

[1] = tested on: deep lymph nodes, thoracic duct and lymphatic vessels; assay: Whole-body 3D-micro-MR lymphangiography of normal mice, PAMAM-G8 versus GPDM (Example 3); assay type: in vivo; conditions: intracutaneous injection, 0.05 mmolGd/kg (FIG. 13)
Method: as §1, §2
In this example, the PAMAM-G8 contrast agent is compared to GPDM. PAMAM-G8 was prepared as described in Example 2, and GPDM was purchased (Schering AG, Berlin, Germany). Animal models, administration of the contrast agents, and 3D-micro-MRL were as described in Example 2.

[2] = tested on: draining lymph nodes and lymphatic vessels; assay: 3D dynamic mammo-lymphangiograms after sequential injection of GPDM and PAMAM-G6 into the mammary gland; assay type: in vivo, athymic nu/nu mice; conditions: 0.15 μmol Gd into mammary gland; GPDM imaged at 12, 24, 36 min, then PAMAM-G6 injected 36 minutes following GPDM
Method: Mice were anesthetized with 1.15 mg sodium pentobarbital (Dainabot, Osaka, Japan), and then injected with 0.15-0.24 μmol Gd/5-8 μL of the PAMAM-G6 contrast agent into normal mammary glands or mammary tissue surrounding a tumor (peritumorally). Dynamic micro-MR images were obtained using a 1.5-Tesla superconductive magnet unit (Signa LX, General Electric Medical System, Milwaukee, Wis.) with a birdcage type coil of 3 cm diameter fixed by a custom made coil holder. [Single and double “breast coils” used for imaging breasts in humans are commercially available, for example, from GE Medical Systems (Milwaukee, Wis.) and are routinely available in outpatient MRI centers] The mice were wrapped with gauze to stabilize their body temperature and were placed at the center of the coils. Athymic nu/nu mice (n=4) were anesthetized and injected with 0.15 μmol Gd of GPDM into the mammary gland, and images were taken 12, 24, and 36 min after injection. Following these three images, these mice were subsequently injected with 0.15 μmol Gd of PAMAM-G6 contrast agent in the mammary gland, and images were taken at 12 and 24 min post-injection of the PAMAM-G6 contrast agent (at 48 and 60 min post-injection of GPDM).

[3] = tested on: lymph nodes and lymphatic vessels of IL-15 transgenic mice; assay: 3D-micro-MRL in IL-15 transgenic lymphoproliferative/neoplastic disease model; assay type: in vivo; conditions: 45 minutes after injection, FIGS. 11, 15A
Method: Eight- to 10-month old IL-15 transgenic mice (on a C57BL6 background) were used as a chronic lymphoproliferative/neoplastic disease model because they manifested selective expansion of NK, CD8^+NK-T, γδIELs, and CD8 T cells in the periphery. Most of the lymph nodes collected from an aged IL-15 transgenic mouse were enlarged in size. The lesion of proliferated monoclonal lymphocytes often involved the lung and the subcutaneous lymphatic tissue.
as §1
as §2, with “The FOV was 6×3 cm and the size of the matrix was 512×256.” left out, “The slice data were processed into 3D images using the MIP method with the same window and level (window 3500 and level 2300) (Advantage Windows, General Electric Medical System).” left out, “After imaging, the mice were sacrificed by carbon dioxide inhalation.” left out

[4] = Distribution and survival properties of the dendrimer conjugates; conditions: in vivo

Compound | Image enhancement (deep lymphatic system; 45 minutes after injection, FIG. 8B) | Number of Mice in Which the Thoracic Duct was Visualized/Number of Mice Examined (deep lymphatic system; 10 min) | Number of Mice in Which the Thoracic Duct was Visualized/Number of Mice Examined (deep lymphatic system; 20 min) | Number of Mice in Which the Thoracic Duct was Visualized/Number of Mice Examined (deep lymphatic system; 30 min) | Number of Mice in Which the Thoracic Duct was Visualized/Number of Mice Examined (deep lymphatic system; 45 min) | Visualization of the deep lymph nodes (deep lymphatic system) | Visualization of deep lymph nodes throughout the body [1] | Visualization of draining lymph nodes and lymphatic vessels (FIG. 3) [2] | Axillary lymph node-to-background (muscle) signal intensity ratio, comparison between agents (deep lymphatic system) | Axillary lymph node-to-liver signal intensity ratio, comparison between agents (deep lymphatic system) | Lymph node findings on 3D-micro-MRL [3] | Distribution within the lymphatic system [4] | Survival in the blood circulation and excretion [4]
CNC[C@H](O)[C@@H](O)[C@H](O)[C@H](O)CO.CNC[C@H](O)[C@@H](O)[C@H](O)[C@H](O)CO.O=C([O-])CN(CCN(CC(=O)[O-])CC(=O)O)CCN(CC(=O)[O-])CC(=O)O.[Gd+3] [GPDM, gadopentetate dimeglumine, reference compound] | Virtually no image enhancement | 2/5 | 0/5 | 0/5 | 0/5 | did not allow most of the lymph nodes to be visualized even at early times | but not with GPDM | not well visualized | – | – | – | – | –
DAB-Am-128-(Gd-1B4M)128 dendrimer conjugate [DAB-G5] | – | 3/5 | 2/5 | 0/5 | 0/5 | – | – | – | significantly higher than that obtained with either PAMAM-G8 or PAMAM-G4 | nearly equivalent, but were significantly higher than that measured with GPDM | considerable multiple lymph node swellings with central filling defects | tend to accumulate in the lymph nodes rather than the vessels | –
Gadomer-17 [reference compound] | – | 2/5 | 2/5 | 1/5 | 1/5 | allowed visualization of the deep lymph nodes, albeit not as clearly and brightly as the dendrimer-based agents | – | – | significantly higher than that acquired with GPDM | nearly equivalent, but were significantly higher than that measured with GPDM | – | – | –
PAMAM-G4D-(Gd-1B4M)64 dendrimer conjugate | – | 4/5 | 4/5 | 3/5 | 2/5 | – | – | – | significantly higher than that measured with Gadomer-17 and GPDM | significantly higher than that acquired with PAMAM-G8, DAB G-5, or Gadomer-17 | – | tend to accumulate in the lymph nodes rather than the vessels | short survival in the blood circulation due to a rapid renal excretion without significant retention in other organs
